The text below walks through data of patent US20060030608A1, “Anti aromatase compounds pharmaceutical compositions and uses thereof” (Boehringer Ingelheim Pharmaceuticals, Inc., priority 2004, published 2006).

The target of the assay is T1, recombinant human aromatase (CYP19) (Homo sapiens, UniProt P11511).
T1 construct: purchased GENTEST 456260; host or cells: baculovirus/insect cells
T1 sequence (P11511 1-503): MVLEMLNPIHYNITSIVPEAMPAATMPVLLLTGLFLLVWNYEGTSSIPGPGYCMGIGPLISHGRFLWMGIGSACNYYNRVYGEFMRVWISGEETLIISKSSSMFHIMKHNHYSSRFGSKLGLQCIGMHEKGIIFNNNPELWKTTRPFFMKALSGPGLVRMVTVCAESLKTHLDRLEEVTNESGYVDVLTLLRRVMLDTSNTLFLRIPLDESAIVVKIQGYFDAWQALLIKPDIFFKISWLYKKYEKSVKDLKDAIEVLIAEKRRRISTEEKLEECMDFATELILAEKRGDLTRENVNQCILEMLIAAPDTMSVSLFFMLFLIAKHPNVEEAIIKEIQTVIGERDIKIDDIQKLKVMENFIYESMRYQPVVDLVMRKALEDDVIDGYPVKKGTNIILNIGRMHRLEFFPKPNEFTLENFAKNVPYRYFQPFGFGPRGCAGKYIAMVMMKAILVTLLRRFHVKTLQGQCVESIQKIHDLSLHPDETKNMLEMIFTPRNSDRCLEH
As to the kind of experiment: aromatase (CYP19) inhibition assay, fluorometric substrate dibenzylfluorescein (DBF). The class given is biochemical. To be noted: recombinant human aromatase (baculovirus/insect cell expressed), test compounds 2×10^−5 to 10^−9 M, 37° C. for 30 minutes. The protocol:
Compounds of the invention were evaluated for inhibiting aromatase enzyme using the following aromatase (CYP19) inhibition assay which detects aromatase inhibitors utilizing recombinant human aromatase (baculovirus/insect cell expressed) and the fluorometric substrate dibenzylfluorescein (DBF). Aromatase will metabolize DBF to fluorescein which will give the fluorescent signal. The assay is conducted in 96-well black, Falcon plate (BD Biosciences, Cat. No. 353241) in the total volume of 100 μL per well. 40 μL of the Cofactor/Dilution buffer (1) is added to the plate followed by 10 μL of serially diluted test compounds in duplicates for final concentration of 2×10^−5 to 10^−9 M, or 10 μL of phosphate buffer for positive and background control wells. After 10 minutes of preincubation at 37° C., the reaction is initiated by adding 50 μL of prewarmed Enzyme/Substrate Mix (2) to the test compound wells, and positive control wells (maximum activity of CYP19, which represents 100%). The plate is incubated at 37° C. for 30 minutes. To stop the reaction, 37.5 μL of 2 N NaOH is added to all wells. For background controls, 50 μL of Enzyme/Substrate Mix (2) are added into background control wells. The plate is left at 37° C. incubator for 2 hours to develop adequate signal to background ratio. Fluorescence per well is measured in the fluorescent plate reader. The metabolite concentration is measured using excitation wavelength of 485 nm and emission wavelength of 538 nm. Inhibition of aromatase by test compounds is expressed in percentage relative to positive controls. IC50 values for the test compounds are derived from non-liner curve fitting. • (1) Cofactor/Dilution buffer: 50 mM phosphate buffer, pH=7.4; 1× NADPH regenerating system A (20× stock, GENTEST, Cat. No. 451220); 1× NAPDH regenerating system B (100× stock, GENTEST, Cat. No. 451200) and 0.2 mg/mL control protein (Insect Cell Control Supersomes, GENTEST, Cat. No. 456200) • (2) Enzyme/Substrate Mix: 50 mM phosphate buffer, pH=7.4, 0.02 nmole/mL human aromatase protein (Human CYP19+P450 Reductase Supersomes, GENTEST, Cat. No. 456260); 0.4 μM dibenzylfluorescein (DBF, GENTEST, Cat. No. 451750, prepared at 2 mM concentration in acetonitrile); 0.5 mg/mL control protein (Insect Cell Control Supersomes, GENTEST, Cat. No. 456200).

In the case of `COc1ccc(F)cc1C(C)(C)CC(O)(Cc1cc2cnccc2[nH]1)C(C)C` (stereo not shown) [5-(5-Fluoro-2-methoxyphenyl)-2,5-dimethyl-3-(1H-pyrrolo[3,2-c]pyridin-2-ylmethyl)hexan-3-ol], the aromatase inhibition result is on record as “showed aromatase inhibition”.
The entry for `COc1ccc(F)cc1C(C)(C)CC(O)(Cc1[nH]c2ccncc2c1CN(C)C)C(F)(F)F` (stereo not shown) [2-(3-Dimethylaminomethyl-1H-pyrrolo[3,2-c]pyridin-2-ylmethyl)-1,1,1-trifluoro-4-(5-fluoro-2-methoxyphenyl)-4-methylpentan-2-ol] is “showed aromatase inhibition”.
The entry for `Cc1ccc(F)cc1C(C)(C)CC(O)(Cc1cc2cnccc2[nH]1)C1CC1` (stereo not shown) [2-Cyclopropyl-4-(5-fluoro-2-methylphenyl)-4-methyl-1-(1H-pyrrolo[3,2-c]pyridin-2-yl)pentan-2-ol] is “showed aromatase inhibition”.
In the case of `Cc1ccc(F)cc1C(C)(C)CC(O)(Cc1cc2ccncc2[nH]1)C1CC1` (stereo not shown) [2-Cyclopropyl-4-(5-fluoro-2-methylphenyl)-4-methyl-1-(1H-pyrrolo[2,3-c]pyridin-2-yl)pentan-2-ol] it was “showed aromatase inhibition”.
Regarding `CC(C)C(O)(Cc1cc2ccncc2[nH]1)CC(C)(C)c1cc(Cl)cc2c1OCC2` (stereo not shown) [5-(5-Chloro-2,3-dihydrobenzofuran-7-yl)-2,5-dimethyl-3-(1H-pyrrolo[2,3-c]pyridin-2-ylmethyl)hexan-3-ol], the aromatase inhibition entry is recorded as “showed aromatase inhibition”.
`CC(C)(CC(O)(Cc1cc2cnccc2[nH]1)C(F)(F)F)c1ccc(F)cc1` (stereo not shown) [1,1,1-Trifluoro-4-(4-fluorophenyl)-4-methyl-2-(1H-pyrrolo [3,2-c]pyridin-2-ylmethyl)pentan-2-ol]: the aromatase inhibition result is “showed aromatase inhibition”.
Turning to `COc1ccc(F)cc1C(C)(C)CC(O)(Cc1cc2ccncc2[nH]1)C(F)(F)F` (stereo not shown) [1,1,1-Trifluoro-4-(5-fluoro-2-methoxyphenyl)-4-methyl-2-(1H-pyrrolo[2,3-c]pyridin-2-ylmethyl)pentan-2-ol], the aromatase inhibition entry is recorded as “showed aromatase inhibition”.
The entry for `Cc1cc2c(c(C(C)(C)CC(O)(Cc3cc4ccncc4[nH]3)C(F)(F)F)c1)OCC2` (stereo not shown) [1,1,1-Trifluoro-4-methyl-4-(5-methyl-2,3-dihydrobenzofuran-7-yl)-2-(1H-pyrrolo[2,3-c]pyridin-2-ylmethyl)pentan-2-ol] is “showed aromatase inhibition”; for `COc1ccc(F)cc1C(C)(C)CC(O)(Cc1cc2cnccc2[nH]1)C(F)F` (stereo not shown) [1,1-Difluoro-4-(5-fluoro-2-methoxyphenyl)-4-methyl-2-(1H-pyrrolo[3,2-c]pyridin-2-ylmethyl)pentan-2-ol] it is “showed aromatase inhibition”.
In the case of `COc1ccc(F)cc1C(C)(C)CC(O)(Cc1cc2ccncc2[nH]1)C1CC1` (stereo not shown) [2-Cyclopropyl-4-(5-fluoro-2-methoxyphenyl)-4-methyl-1-(1H-pyrrolo[2,3-c]pyridin-2-yl)pentan-2-ol] it was “showed aromatase inhibition”; in that of `CC(C)(CC(O)(Cc1cc2ccncc2[nH]1)C(F)(F)F)c1cccc(F)c1` (stereo not shown) [1,1,1-Trifluoro-4-(3-fluorophenyl)-4-methyl-2-(1H-pyrrolo[2,3-c]pyridin-2-ylmethyl)pentan-2-ol], “showed aromatase inhibition”; in that of `CC(C)(CC(O)(Cc1cc2ccncc2[nH]1)C(F)(F)F)c1cccc2c1OCC2` (stereo not shown) [4-(2,3-Dihydrobenzofuran-7-yl)-1,1,1-trifluoro-4-methyl-2-(1H-pyrrolo[2,3-c]pyridin-2-ylmethyl)pentan-2-ol], “showed aromatase inhibition”.
For the compound `COc1ccc(F)cc1C(C)(C)CC(O)(Cc1cc2ncncc2[nH]1)C(F)(F)F` (stereo not shown) [1,1,1-Trifluoro-4-(5-fluoro-2-methoxyphenyl)-4-methyl-2-(5H-pyrrolo[3,2-d]pyrimidin-6-ylmethyl)pentan-2-ol], the aromatase inhibition result is “showed aromatase inhibition”.
The entry for `CC(C)(CC(O)(Cc1cc2ccncc2[nH]1)C1CC1)c1cc(Cl)cc2c1OCC2` (stereo not shown) [4-(5-Chloro-2,3-dihydrobenzofuran-7-yl)-2-cyclopropyl-4-methyl-1-(1H-pyrrolo[2,3-c]pyridin-2-yl)pentan-2-ol] is “showed aromatase inhibition”; for `CC(C)(CC(O)(Cc1cc2cnccc2[nH]1)C(F)(F)F)c1ccccc1` (stereo not shown) [1,1,1-Trifluoro-4-methyl-4-phenyl-2-(1H-pyrrolo [3,2-c]pyridin-2-ylmethyl)pentan-2-ol] it is “showed aromatase inhibition”.
The entry for `COc1cc(F)ccc1C(C)(C)CC(O)(Cc1cc2ccncc2[nH]1)C(F)(F)F` (stereo not shown) [1,1,1-Trifluoro-4-(4-fluoro-2-methoxyphenyl)-4-methyl-2-(1H-pyrrolo[2,3-c]pyridin-2-ylmethyl)pentan-2-ol] is “showed aromatase inhibition”; for `CC(C)(CC(O)(Cc1cc2cnccc2[nH]1)C(F)(F)F)c1ccc(F)cc1O` (stereo not shown) [5-Fluoro-2-[4,4,4-trifluoro-3-hydroxy-1,1-dimethyl-3-(1H-pyrrolo[3,2-c]pyridin-2-ylmethyl)butyl]phenol] it is “showed aromatase inhibition”.
In the case of `CC(C)(CC(O)(Cc1cc2ccncc2[nH]1)C(F)(F)F)c1ccc(F)cc1` (stereo not shown) [1,1,1-Trifluoro-4-(4-fluorophenyl)-4-methyl-2-(1H-pyrrolo[2,3-c]pyridin-2-ylmethyl)pentan-2-ol] it was “showed aromatase inhibition”; in that of `COc1ccc(F)cc1C(C)(C)CC(O)(Cc1cc2ccncc2s1)C(F)(F)F` (stereo not shown) [1,1,1-Trifluoro-4-(5-fluoro-2-methoxyphenyl)-4-methyl-2-thieno[2,3-c]pyridin-2-ylmethylpentan-2-ol], “showed aromatase inhibition”.
Consider `COc1ccc(F)cc1C(C)(C)CC(O)(Cc1cc2cncnc2[nH]1)C(F)(F)F` (stereo not shown) [1,1,1-Trifluoro-4-(5-fluoro-2-methoxyphenyl)-4-methyl-2-(7H-pyrrolo[2,3-d]pyrimidin-6-ylmethyl)pentan-2-ol], for which the aromatase inhibition entry is given as “showed aromatase inhibition”.
The entry for `CC(C)(CC(O)(Cc1cc2cnccc2[nH]1)C(F)(F)F)c1cccc(F)c1` (stereo not shown) [1,1,1-Trifluoro-4-(3-fluorophenyl)-4-methyl-2-(1H-pyrrolo[3,2-c]pyridin-2-ylmethyl)pentan-2-ol] is “showed aromatase inhibition”.
In the case of `COc1ccc(F)cc1C(C)(C)CC(O)(Cc1cc2cnccc2[nH]1)C(C)(C)C` (stereo not shown) [5-(5-Fluoro-2-methoxyphenyl)-2,2,5-trimethyl-3-(1H-pyrrolo[3,2-c]pyridin-2-ylmethyl)hexan-3-ol] it was “showed aromatase inhibition”; in that of `Cc1ccc(F)cc1C(C)(C)CC(O)(Cc1cc2ncncc2[nH]1)C(F)(F)F` (stereo not shown) [1,1,1-Trifluoro-4-(5-fluoro-2-methylphenyl)-4-methyl-2-(5H-pyrrolo[3,2-d]pyrimidin-6-ylmethyl)pentan-2-ol], “showed aromatase inhibition”.
In the case of `CC(C)(CC(O)(Cc1cc2ccncc2[nH]1)C(F)(F)F)c1ccccc1` (stereo not shown) [1,1,1-Trifluoro-4-methyl-4-phenyl-2-(1H-pyrrolo[2,3-c]pyridin-2-ylmethyl)pentan-2-ol] it was “showed aromatase inhibition”.
`Cc1ccc(F)cc1C(C)(C)CC(O)(Cc1cc2ccncc2[nH]1)C(C)C` (stereo not shown) [5-(5-Fluoro-2-methylphenyl)-2,5-dimethyl-3-(1H-pyrrolo[2,3-c]pyridin-2-ylmethyl)hexan-3-ol]: the aromatase inhibition entry is on record as “showed aromatase inhibition”.
